Earlier results on 1 compound are cited in patent US20220081482A1, “ANTICANCER COMPOSITIONS COMPRISING IMMUNE CHECKPOINT INHIBITORS” (priority 2018, published 2022).

For the data set the following is noted: orally administered to rats.

`CN(C)C(=N)N=C(N)N` [metformin]: the LD50 is 1,450 mg/kg.
